The subject of experiment [1] is Acute inflammatory oedema of the paws. Nature of the experiment: Rat paw oedema test (carrageenin). As to conditions: po, i.g., 1 hour after carrageenin injection, inhibition of increase in paw volume, male rats. Type of experiment: in vivo. Here is the method: Acute inflammatory oedema of the paws was induced in male rats (100-120 g) by subplantar injection of 0.1 ml of 2% carrageenin (dissolved in aqueous 0.9% NaCl solution). The volume of the paws was measured with a paw volume measuring instrument 1 hour and 4 hours after the carrageenin injection. The differences in paw volume between the two measurements was calculated. The test substances were suspended in 1% tylose and administered intragastrally through a stomach tube one hour after the carrageenin injection.
The controls were given vehicle alone (1% tylose). The percentage inhibition of increase in volume in the treated animals was obtained from a comparison with the untreated controls. The average inhibitory doses (ED50) were calculated on the basis of the regression graphs.

For another experiment, the system named is leucocyte migration. Nature of the experiment: Leucocyte migration test (carrageenin-soaked polyester sponges). It counts as in vivo, rat. As to conditions: male rats, 24 hours. How it is done: Polyester sponges soaked in 2% carrageenin solution were implanted subcutaneously in the neck region of male rats (140-150 g) (see G. A. Higgs et al, Eur. J. Pharmacol. 66, 81 (1980), A. W. Ford-Hutchinson et al, J.Pharmacol. Methods 1, 3 (1978)). The sponges were removed after 24 hours. The leucocytes which had migrated in were washed out with a PBS solution (pH 7.4, 0.5% trypsin, 10 units/ml of heparin) for 30 minutes at 37° C. The sponges were then carefully squeezed and centrifuged (15 minutes, 500 revs/min). The leucocytes in the washing liquid were then counted. The test substances which had been taken up in 1% tylose and the vehicle (1% tylose) were administered intragastrally with a stomach tube immediately after implantation of the sponge and then after 5 hours and after 21 hours. The percentage inhibition of leucocyte migration after administration of the test substances was determined by comparison with the controls. The average inhibitory doses (ED50) were calculated from the regression graphs.

Experiment [2] deals with PGE 2 synthesis and release. Nature of the experiment: Inhibition of PGE 2 synthesis and release in vitro. It counts as cell-based.
Experiment [3] has as its system LTC 4 synthesis and release. Nature of the experiment: Inhibition of LTC 4 synthesis and release in vitro. Type of experiment: cell-based.
In experiment [4] the test system is lipoxygenase and cyclooxygenase. As to conditions: known inhibitors, statement in words; cited from earlier work.

The source of these data is US4600721A, “Pharmaceutical preparation” (Ludwig Heumann & Co., GmbH, priority 1984, dated 1986).

One may read the ED50 as the midpoint of the dose-response relation. Read a high ED50 as weaker potency.

Regarding `CCC=NNc1nc2ccccc2o1` [Example 7, N-(benzoxazol-2-yl)-propionaldehyde hydrazone], in experiment [1], it took a dose of 20 mg/kg to reach the 50% effect level (ED50).
Turning to `CC(C)=NNc1nc2ccccc2o1` [Example 6, N-(benzoxazol-2-yl)-acetone hydrazone], it took a dose of 10 mg/kg to reach the 50% effect level in experiment [1] (ED50).
On the same count and under the same terms, for `CC=NNc1nc2ccccc2o1` [Example 5, N-(benzoxazol-2-yl)-acetaldehyde hydrazone] the value was 20 mg/kg.
Take `O=CNNc1nc2ccccc2s1` [Example 8, benzothiazol-2-one-(β-formyl hydrazone)]: the “Inhibition of leucocyte migration (control = 0%)” value (shortened to “Inhibition … (control = 0%)”) in the experiment on leucocyte migration (50 mg/kg i.g.) is recorded as 67%. The figures for the “PGE 2 (% of controls)” value in experiment [2] (at 10^-4), in experiment [2] (at 10^-5) and in experiment [2] (at 10^-6) were 82 % of controls, 112 % of controls and 105 % of controls, respectively. Also, in experiment [1], it took a dose of 14 mg/kg to reach the 50% effect level (ED50). Also, the entries for the “LTC 4 (% of controls)” value in experiment [3] (at 10^-4), in experiment [3] (at 10^-5) and in experiment [3] (at 10^-6) were 11 % of controls, 70 % of controls and > 100 % of controls, respectively.
In turn, `CCC(C)=NNc1nc2ccccc2s1` [Example 4, N-(benzothiazol-2-yl)-methyl ethyl ketone hydrazone] showed an ED50 in experiment [1] of 10 mg/kg.
On to `CCC=NNc1nc2ccccc2s1` [Example 3, N-(benzothiazol-2-yl)-propionaldehyde hydrazone], for which the “PGE 2 (% of controls)” value in experiment [2] (at 10^-4) is recorded as 8 % of controls; in experiment [2] (at 10^-5), 37 % of controls; in experiment [2] (at 10^-6), 61 % of controls. Further, the 50% effect level in experiment [1] (ED50) was put at a dose of 20 mg/kg. Besides, the results for the “LTC 4 (% of controls)” value in experiment [3] (at 10^-4), in experiment [3] (at 10^-5) and in experiment [3] (at 10^-6) were 24 % of controls, > 100 % of controls and > 100 % of controls, respectively.
As for `CC(C)=NNc1nc2ccccc2s1` [Example 2, N-(benzothiazol-2-yl)-acetone hydrazone], the “Inhibition … (control = 0%)” value in the experiment with leucocyte migration (50 mg/kg i.g.) is given as 34%. In addition, the “PGE 2 (% of controls)” value in experiment [2] (at 10^-4) is 20 % of controls; in experiment [2] (at 10^-5) it was 43 % of controls; in experiment [2] (at 10^-6), 103 % of controls. This compound also displayed an ED50 in experiment [1] of 10 mg/kg. Further, the “LTC 4 (% of controls)” value in experiment [3] (at 10^-4) is reported as 16 % of controls; in experiment [3] (at 10^-5), 41 % of controls; in experiment [3] (at 10^-6), 89 % of controls.
Consider `CC(C(=O)O)c1ccc2oc(-c3ccc(Cl)cc3)nc2c1` (centres unmarked) [Benoxaprofene], for which the “selective inhibitory action on lipoxygenase or inhibition of both lipoxygenase and cyclooxygenase” value in experiment [4] is recorded as “known inhibitors of this kind”.
In the case of `CC=NNc1nc2ccccc2s1` [Example 1, N-(benzothiazol-2-yl)-acetaldehyde hydrazone], the “Inhibition … (control = 0%)” value in the experiment on leucocyte migration (40 mg/kg i.g.) turned out to be 50%. Moreover, the “PGE 2 (% of controls)” value in experiment [2] (at 10^-4) is on record as 12 % of controls; in experiment [2] (at 10^-5) it was 38 % of controls; in experiment [2] (at 10^-6), 89 % of controls. Besides, the 50% effect level in experiment [1] (ED50) was put at a dose of 15 mg/kg. The “LTC 4 (% of controls)” value in experiment [3] (at 10^-5) and in experiment [3] (at 10^-6) was > 100 % of controls in each case.
